Laboratory results reported in PubChem BioAssay AID1963982 (Molecular Pharmacology Branch, DTP, NCI, 2024).

Test system: 313798-341-R-J2-PDC spheroids, viability
Test: Anticancer human tumor 313798-341-R-J2-PDC patient-derived cervical squamous cell carcinoma cell line growth inhibition [PI3K]
Conditions: spheroids with HUVEC and MSC; for IC50: curve of first compound; for viability, T/C: stronger effect = lower value
Method in brief: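 Tumor cells were combined with HUVEC and MSCs into spheroids, then dosed with PI3K-inhibitor combinations over half-log ranges capped near clinical Cmax or 10 microM.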

[1] = second compound 0.00316 µM, first compound 0.0316 µM
[2] = second compound 0.00316 µM, first compound 0.1 µM
[3] = second compound 0.00316 µM, first compound 0.316 µM
[4] = second compound 0.00316 µM, first compound 1 µM
[5] = second compound 0.00316 µM, first compound 3.16 µM
[6] = second compound 0.00316 µM, first compound 10 µM
[7] = second compound 0.01 µM, first compound 0.0316 µM
[8] = second compound 0.01 µM, first compound 0.1 µM
[9] = second compound 0.01 µM, first compound 0.316 µM
[10] = second compound 0.01 µM, first compound 1 µM
[11] = second compound 0.01 µM, first compound 3.16 µM
[12] = second compound 0.01 µM, first compound 10 µM
[13] = second compound 0.0316 µM, first compound 0.0316 µM
[14] = second compound 0.0316 µM, first compound 0.1 µM
[15] = second compound 0.0316 µM, first compound 0.316 µM
[16] = second compound 0.0316 µM, first compound 1 µM
[17] = second compound 0.0316 µM, first compound 3.16 µM
[18] = second compound 0.0316 µM, first compound 10 µM
[19] = second compound 0.1 µM, first compound 0.0316 µM
[20] = second compound 0.1 µM, first compound 0.1 µM
[21] = second compound 0.1 µM, first compound 0.316 µM
[22] = second compound 0.1 µM, first compound 1 µM
[23] = second compound 0.1 µM, first compound 3.16 µM
[24] = second compound 0.1 µM, first compound 10 µM
[25] = second compound 0.316 µM, first compound 0.0316 µM
[26] = second compound 0.316 µM, first compound 0.1 µM
[27] = second compound 0.316 µM, first compound 0.316 µM
[28] = second compound 0.316 µM, first compound 1 µM
[29] = second compound 0.316 µM, first compound 3.16 µM
[30] = second compound 0.316 µM, first compound 10 µM
[31] = second compound 1 µM, first compound 0.0316 µM
[32] = second compound 1 µM, first compound 0.1 µM
[33] = second compound 1 µM, first compound 0.316 µM
[34] = second compound 1 µM, first compound 1 µM
[35] = second compound 1 µM, first compound 3.16 µM
[36] = second compound 1 µM, first compound 10 µM
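Note: spheroids exposed to compounds for seven days.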
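Throughout, for viability, T/C: 100% = DMSO vehicle control viability.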

For `CC(Cn1ccc(-c2ccc(C#N)c(Cl)c2)n1)NC(=O)c1cc(C(C)O)[nH]n1` (stereo unspecified) + CC(Nc1ccc2c(c1)OCCn1cc(N3C(=O)OCC3C(F)F)nc1-2)C(N)=O, the IC50 (second compound 0.00316 µM) was greater than 10 µM, the IC50 (second compound 0.01 µM) was greater than 10 µM and the IC50 (second compound 0.0316 µM) was greater than 10 µM. It also gave an IC50 (second compound 0.1 µM) greater than 10 µM, an IC50 (second compound 0.316 µM) greater than 10 µM and an IC50 (second compound 1 µM) of 4.5 µM. For the same molecule, the viability, T/C [1] was 102%, the viability, T/C [2] was 107% and the viability, T/C [3] was 98.3%. It also gave a viability, T/C [4] of 101%, a viability, T/C [5] of 105% and a viability, T/C [6] of 99.8%. It also gave a viability, T/C [7] of 106%, a viability, T/C [8] of 103% and a viability, T/C [9] of 109%. The viability, T/C [10] was 103%, the viability, T/C [11] was 100% and the viability, T/C [12] was 89.1%. It also gave a viability, T/C [13] of 122%, a viability, T/C [14] of 111% and a viability, T/C [15] of 106%. It also gave a viability, T/C [16] of 113%, a viability, T/C [17] of 96.7% and a viability, T/C [18] of 97.2%. It also gave a viability, T/C [19] of 109%, a viability, T/C [20] of 107% and a viability, T/C [21] of 102%. For the same molecule, the viability, T/C [22] was 117%, the viability, T/C [23] was 99.1% and the viability, T/C [24] was 82.3%. For the same molecule, the viability, T/C [25] was 86.7%, the viability, T/C [26] was 86.3% and the viability, T/C [27] was 78.8%. It also gave a viability, T/C [28] of 84.5%, a viability, T/C [29] of 79.9% and a viability, T/C [30] of 60.8%. For the same molecule, the viability, T/C [31] was 64.8%, the viability, T/C [32] was 55.5% and the viability, T/C [33] was 63.7%. The viability, T/C [34] was 58.6%, the viability, T/C [35] was 54.2% and the viability, T/C [36] was 40.5%.

With `CC1(C)CCC(Nc2ncc(C(F)(F)F)c(-c3c[nH]c4c(P(C)(C)=O)c(C#N)ccc34)n2)CN1` (stereo unspecified) + CC(Nc1ccc2c(c1)OCCn1cc(N3C(=O)OCC3C(F)F)nc1-2)C(N)=O the IC50 (second compound 0.00316 µM) was 0.0316 µM, the IC50 (second compound 0.01 µM) was less than 0.0316 µM and the IC50 (second compound 0.0316 µM) was less than 0.0316 µM. It also gave an IC50 (second compound 0.1 µM) of less than 0.0316 µM, an IC50 (second compound 0.316 µM) of less than 0.0316 µM and an IC50 (second compound 1 µM) of less than 0.0316 µM. It also gave a viability, T/C [1] of 53.1%, a viability, T/C [2] of 45.8% and a viability, T/C [3] of 42.4%. For the same molecule, the viability, T/C [4] was 48.7%, the viability, T/C [5] was 51.6% and the viability, T/C [6] was 29.3%. The viability, T/C [7] was 49.6%, the viability, T/C [8] was 47.2% and the viability, T/C [9] was 46.1%. For the same molecule, the viability, T/C [10] was 44.1%, the viability, T/C [11] was 49.4% and the viability, T/C [12] was 25.4%. For the same molecule, the viability, T/C [13] was 45%, the viability, T/C [14] was 40.9% and the viability, T/C [15] was 37.9%. For the same molecule, the viability, T/C [16] was 38.6%, the viability, T/C [17] was 41% and the viability, T/C [18] was 29.1%. For the same molecule, the viability, T/C [19] was 36.7%, the viability, T/C [20] was 31.6% and the viability, T/C [21] was 31.1%. It also gave a viability, T/C [22] of 31.7%, a viability, T/C [23] of 30.9% and a viability, T/C [24] of 14.8%. For the same molecule, the viability, T/C [25] was 26.4%, the viability, T/C [26] was 25.3% and the viability, T/C [27] was 24.9%. The viability, T/C [28] was 23.1%, the viability, T/C [29] was 29.3% and the viability, T/C [30] was 8.87%. It also gave a viability, T/C [31] of 21.1%, a viability, T/C [32] of 20.6% and a viability, T/C [33] of 21.5%. It also gave a viability, T/C [34] of 21.9%, a viability, T/C [35] of 23.9% and a viability, T/C [36] of 3.07%.

For `Cn1nccc1Nc1nccc(-c2ccn(C(CO)c3ccc(Cl)c(F)c3)c(=O)c2)n1` (stereo unspecified) + CC(Nc1ccc2c(c1)OCCn1cc(N3C(=O)OCC3C(F)F)nc1-2)C(N)=O, the IC50 (second compound 0.00316 µM) was greater than 10 µM, the IC50 (second compound 0.01 µM) was greater than 10 µM and the IC50 (second compound 0.0316 µM) was greater than 10 µM. The IC50 (second compound 0.1 µM) was greater than 10 µM, the IC50 (second compound 0.316 µM) was greater than 10 µM and the IC50 (second compound 1 µM) was 0.219 µM. The viability, T/C [1] was 98.2%, the viability, T/C [2] was 96% and the viability, T/C [3] was 90.5%. It also gave a viability, T/C [4] of 97.2%, a viability, T/C [5] of 103% and a viability, T/C [6] of 100%. The viability, T/C [7] was 98.7%, the viability, T/C [8] was 97.9% and the viability, T/C [9] was 87.9%. It also gave a viability, T/C [10] of 111%, a viability, T/C [11] of 121% and a viability, T/C [12] of 102%. The viability, T/C [13] was 109%, the viability, T/C [14] was 98.6% and the viability, T/C [15] was 102%. It also gave a viability, T/C [16] of 112%, a viability, T/C [17] of 115% and a viability, T/C [18] of 99.5%. The viability, T/C [19] was 98%, the viability, T/C [20] was 95% and the viability, T/C [21] was 93.6%. It also gave a viability, T/C [22] of 94.8%, a viability, T/C [23] of 89.4% and a viability, T/C [24] of 80.2%. The viability, T/C [25] was 77%, the viability, T/C [26] was 66.4% and the viability, T/C [27] was 65.7%. It also gave a viability, T/C [28] of 58.5%, a viability, T/C [29] of 66.8% and a viability, T/C [30] of 51.6%. For the same molecule, the viability, T/C [31] was 59%, the viability, T/C [32] was 46.1% and the viability, T/C [33] was 46.8%. It also gave a viability, T/C [34] of 46.5%, a viability, T/C [35] of 52.7% and a viability, T/C [36] of 34.9%.
